Reference: patent publication US11591353B2 (Mindset Pharma Inc., priority 2020, dated 2023)
Read-outs that look alike come from different tables or passages of the source.

Legend:
[1] = tobacco use disorder, cited from earlier work
[2] = biological target: human 5-HT2A (h5-HT2A) receptor (Homo sapiens (Human), UniProt P28223); experiment: FLIPR assay, human 5-HT2A receptor under agonist mode; assay type: cell-based; conditions: agonist mode, FLIPR calcium assay; read-out: h5-HT2A EC50
Description: • I. Assessment of the activated effect of exemplary compounds of Formula I targeting on human 5-HT2A (h5-HT2A) receptor under agonist mode: Compound Preparation and Assay Controls I.a. Reagent and Materials:
1. Culture the cells in cell culture medium (DMEM containing 10% FBS 1× penicillin-streptomycin 300 μg/ml G418 and 100 μg/ml hygromycin B) at 37° C., 5% (v/v) CO2.
2. One day before the assays, detach the cell using TrypLE™ Express and count cells using cell counter.
3. Seed 20000 cells/well in 30 μl/well culture medium to a 384-well cell plate and incubate the cells overnight at 37° C., 5% (v/v) CO2.
4. On the assay day, prepare 2× dye solution following the manual of the FLIPR® Calcium 6 Assay Kit: i. Dilute the dye with assay buffer (20 mM HEPES in 1×HBSS, PH7.4); ii. Add probenecid to the final concentration of 5 mM; iii. Vortex vigorously for 1-2 minutes.
5. Medium from cell plate by flicking the cell plate on towel papers.
6. Add 10 μl of assay buffer and 10 μl of 2× dye solution to each well of the cell plate.
7. Put the cell plate on plate shaker, agitate the plate at 600 rpm for 2 minutes. Incubate the plate at 37° C. for 2 hours followed by additional 15-minute incubation at 25° C.
8. Prepare 3× compound in assay buffer: a. Dilute reference compounds to required concentration with DMSO. Add the compounds to a 384-well compound plate; b. Perform serial dilutions; c. Add 10 mM test compounds to the compound plate, perform 3-fold serial dilutions. d. […] Add 20 μl/well assay buffer to the compound plate; f. Mix the plate on plate shaker for 2 mins;
i. The normalized fluorescence reading (RFU) is calculated as shown follow, while Fmax and Fmin stand for maximum and minimum of calcium signal during defined time window: RFU=Fmax−Fmin
ii. Calculate the percentage activation by using following equation: […]
iii. Calculate EC50 by fitting % activation against log of compound concentrations with Hill equation using XLfit.

human 5-HT2A receptor = human 5-HT2A receptor (Homo sapiens (Human), UniProt P28223); experiment: Radioligand binding assay on human 5-HT2A receptor ([3H]-ketanserin)
Description: i. Prepare the assay buffer following the table below;
ii. Preparation of 8 doses of reference and test compounds starting from 10 mM stock solution as requested by 5-fold serial dilutions with 100%;
iii. […] a. Add 50 μl/well of 0.5% (v/v) PEI to UniFilter-96 GF/B plates. Seal the plates and incubate at 4° C. for 3 hrs; b. After incubation, wash the plates 3 times with ice-cold wash buffer (50 mM Tris, pH7.4);
iv. Preparation of assay plates: a. Dilute cell membrane with assay buffer and add 330 μl/well to 96 round deep well plates to reach a concentration of 20 μg/well; b. […] Dilute [3H]-ketanserin with assay buffer to 5 nM (5× final concentration) and add 110 μl/well to 96 round deep well plates.
v. Centrifuge the plate at 1000 rpm for 30 secs and then agitate at 600 rpm, R.T. for 5 min.
vii. Stop the incubation by vacuum filtration onto GF/B filter plates followed by 4 times washing with ice-cold wash buffer (50 mM Tris, pH7.4).
ix. […]
For reference and exemplary test compounds of the application, the results are expressed as % Inhibition, using the normalization equation: N=100−100×(U−C2)/(C1−C2), where U is the unknown value, C1 is the average of high controls, and C2 is the average of low controls. The IC50 is determined by fitting percentage of inhibition as a function of compound concentrations with Hill equation using XLfit.

[3] = Liver microsomes stability, human; conditions: for Remaining Percentage (%) after 60 min Human: 2 μM, 0.5 mg/mL microsomes
Description: (§1) The objective of this study was to estimate in vitro metabolic stability of I-12 in pooled human, male rat and male mouse liver microsomes. The concentrations of parent compounds in reaction systems were evaluated by LC-MS/MS for estimating the stability in pooled human, male rat and male mouse liver microsomes. The in vitro intrinsic clearances of test compounds were determined as well.
(§2) A master solution in the “Incubation Plate” containing phosphate buffer, ultra-pure H2O, MgCl2 solution and liver microsomes was made according to Table-3. The mixture was pre-warmed at 37° C. water bath for 5 minutes.
(§3) 40 μL of 10 mM NADPH solution was added to each well. The final concentration of NADPH was 1 mM. The negative control samples were prepared by replacing NADPH with 40 μL of ultra-pure H2O. Samples were prepared in duplicate. Negative controls were prepared in singlet.
(§4) The reaction was started with the addition of 4 μL of 200 μM exemplary test compounds of the application or control compounds to each master solution to get the final concentration of 2 μM. This study was performed in duplicate.
(§5) Aliquots of 50 μL were taken from the reaction solution at 0, 15, 30, 45 and 60 minutes. The reaction solutions were stopped by the addition of 4 volumes of cold methanol with IS (100 nM alprazolam, 200 nM imipramine, 200 nM labetalol and 2 μM ketoprofen). Samples were centrifuged at 3,220 g for 40 minutes. Aliquot of 90 μL of the supernatant was mixed with 90 μL of ultra-pure H2O and then was used for LC-MS/MS analysis.
(§6) LC/MS analysis was performed for all samples from this study using a Shimadzu liquid chromatograph separation system equipped with degasser DGU-20A5R; solvent delivery unit LC-30AD; system controller SIL-30AC; column oven CTO-30A; CTC Analytics HTC PAL System. Mass spectrometric analysis was performed using an Triple Quad™ 5500 instrument.
(§7) All calculations were carried out using Microsoft Excel. Peak area ratios of test compound to internal standard (listed in the below table) were determined from extracted ion chromatograms.
(§8) All calculations were carried out using Microsoft Excel. Peak areas were determined from extracted ion chromatograms. The slope value, k, was determined by linear regression of the natural logarithm of the remaining percentage of the parent drug vs. incubation time curve.
(§9) Conversion of the in vitro t1/2 (min) into the in vitro intrinsic clearance (in vitro CLint, in μL/min/mg proteins) was done using the following equation (mean of duplicate determinations): […]

[4] = Liver microsomes stability, rat; conditions: for Remaining Percentage (%) after 60 min Rat: 2 μM, 0.5 mg/mL microsomes
Description: as §1, §2, §3, §4, §5, §6, §7, §8, §9

[5] = Liver microsomes stability, mouse; conditions: for Remaining Percentage (%) after 60 min Mouse: 2 μM, 0.5 mg/mL microsomes
Description: as §1, §2, §3, §4, §5, §6, §7, §8, §9

Structure (SMILES)	abstinence rate ([1]; 12 months follow-up)	abstinence rate ([1]; six months follow-up)	EC50 [2]	IC50 (human 5-HT2A receptor)	half-life at 2 μM ([3]; human, microsomes)	microsomal CLint at 2 μM ([3]; human, microsomes)	metabolic stability in liver microsomes (in words) ([3]; human, rat and mouse liver microsomes, 60 minute)	Remaining Percentage (%) after 60 min Human ([3]; with NADPH)	half-life at 2 μM ([4]; male, rat, microsomes)	microsomal CLint at 2 μM ([4]; male, rat, microsomes)	Remaining Percentage (%) after 60 min Rat ([4]; with NADPH)	half-life at 2 μM ([5]; male, mouse, microsomes)	microsomal CLint at 2 μM ([5]; male, mouse, microsomes)	Remaining Percentage (%) after 60 min Mouse ([5]; with NADPH)	CLint (μL/min/mg protein) Human ([3]; with NADPH)	t1/2 (min) Human ([3]; with NADPH)	CLint (μL/min/mg protein) Rat ([4]; with NADPH)	t1/2 (min) Rat ([4]; with NADPH)	CLint (μL/min/mg protein) Mouse ([5]; with NADPH)	t1/2 (min) Mouse ([5]; with NADPH)
CN(C)CCc1c[nH]c2cccc(OP(=O)(O)O)c12 [psilocybin, 4-phosphoryloxy-N,N-dimethyltrypatmine]	67%	80%	–	–	–	–	–	–	–	–	–	–	–	–	–	–	–	–	–	–
[2H]C([2H])([2H])N(C([2H])([2H])[2H])C([2H])([2H])C([2H])([2H])c1c[nH]c2cccc(OCc3ccccc3)c12 [Compound I-46, 2-(4-(benzyloxy)-1H-indol-3-yl)-N,N-bis(methyl-d3)ethan-1-amine-1,1,2,2-d4]	–	–	72.6 nM	106 nM	1.31 h	17.6 µL/min/mg	rapidly metabolized	58.94%	0.593 h	39 µL/min/mg	108.23%	0.862 h	26.8 µL/min/mg	44.75%	–	–	–	–	–	–
CN(C)CCc1c[nH]c2cccc(O)c12 [Psilocin, 4-hydroxy-N,N-dimethyltryptamine, reference compound]	–	–	–	–	–	–	–	70.16%	–	–	62.68%	–	–	96.89%	11.81 μL/min/mg protein	117.32 min	15.57 μL/min/mg protein	89.01 min	9.78 μL/min/mg protein	141.71 min
